# Measurements reported in patent US4668627A, “Novel antibiotic compound” (Kureha Kagaku Kogyo Kabushiki Kaisha, priority 1982, dated 1987).
# What was measured:
# [1] = system: Vibrio-metshnikov IAM 1039; assay: MIC, agar dilution, nutrient agar medium; assay type: cell-based
# Eubacterium aerofaciens = assay: MIC, agar dilution, nutrient agar medium; assay type: cell-based; conditions: Collinsella aerofaciens
# [2] = solubility in organic solvents; assay type: physicochemical
# [3] = system: Proteus vulgaris IFO 3167; assay: MIC, agar dilution, nutrient agar medium; assay type: cell-based; conditions: IFO3167
# Pseudomonas putida T-2 = assay: MIC, agar dilution, nutrient agar medium; assay type: cell-based; conditions: T2
# mouse = assay: acute toxicity to mouse, intraperitoneal; assay type: in vivo; conditions: intraperitoneally, 100 mg/kg
# Erwinia aroidae IAM 1068 = assay: MIC, agar dilution, nutrient agar medium; assay type: cell-based; conditions: IAM1068
# [4] = system: Klebsiella pneumoniae IFO 12015; assay: MIC, agar dilution, nutrient agar medium; assay type: cell-based; conditions: IFO12015
# [5] = system: Peptostreptococcus parvulus; assay: MIC, agar dilution, nutrient agar medium; assay type: cell-based; conditions: Lancefieldella parvula
# [6] = system: Candida albicans IAM 4905; assay: MIC, agar dilution, nutrient agar medium; assay type: cell-based; conditions: IAM4905
# [7] = system: Peptostreptococcus micros; assay: MIC, agar dilution, nutrient agar medium; assay type: cell-based; conditions: Parvimonas micra
# [8] = system: Salmonella abortusequi ATCC 9842; assay: MIC, agar dilution, nutrient agar medium; assay type: cell-based; conditions: Salmonella enterica, ATCC9842
# [9] = system: Fusobacterium necrophorum; assay: MIC, agar dilution, nutrient agar medium; assay type: cell-based
# Salmonella anatum 1 = assay: MIC, agar dilution, nutrient agar medium; assay type: cell-based; conditions: Salmonella enterica
# [10] = system: Bifidobacterium adolescentis; assay: MIC, agar dilution, nutrient agar medium; assay type: cell-based
# [11] = system: Trichophyton interdigitale; assay: MIC, agar dilution, nutrient agar medium; assay type: cell-based
# Pseudomonas ovalis = assay: MIC, agar dilution, nutrient agar medium; assay type: cell-based; conditions: Pseudomonas putida
# [12] = system: Lactobacillus acidophilus; assay: MIC, agar dilution, nutrient agar medium; assay type: cell-based
# [13] = system: Pseudomonas aeruginosa IFO 3080; assay: MIC, agar dilution, nutrient agar medium; assay type: cell-based; conditions: IFO3080
# [14] = system: Aspergillus fumigatus IAM 2155; assay: MIC, agar dilution, nutrient agar medium; assay type: cell-based; conditions: IAM2155
# [15] = system: Serratia marcescens IAM 1065; assay: MIC, agar dilution, nutrient agar medium; assay type: cell-based; conditions: IAM1065
# [16] = system: Trichophyton rubrum IFO 5467; assay: MIC, agar dilution, nutrient agar medium; assay type: cell-based; conditions: IFO5467
# Saccharomyces cerevisiae = assay: MIC, agar dilution, nutrient agar medium; assay type: cell-based
# [17] = system: Proteus inconstans IFO 12930; assay: MIC, agar dilution, nutrient agar medium; assay type: cell-based; conditions: Providencia alcalifaciens, IFO12930
# [18] = system: various gram-positive and gram-negative bacteria; assay: antibacterial activity (general statement); assay type: cell-based
# [19] = system: Aerobacter aerogenes ATCC 8724; assay: MIC, agar dilution, nutrient agar medium; assay type: cell-based; conditions: Klebsiella aerogenes, ATCC8724
# [20] = system: Micrococcus lysodeikticus; assay: MIC, agar dilution, nutrient agar medium; assay type: cell-based; conditions: Micrococcus luteus
# [21] = system: Corynebacterium equi IFO 3730; assay: MIC, agar dilution, nutrient agar medium; assay type: cell-based; conditions: Rhodococcus (subgen. Prescottella) equi, IFO3730
# [22] = system: Penicillium funiculosum IFO 6345; assay: MIC, agar dilution, nutrient agar medium; assay type: cell-based; conditions: Talaromyces funiculosus, IFO6345
# [23] = system: Aspergillus oryzae IAM 2732; assay: MIC, agar dilution, nutrient agar medium; assay type: cell-based; conditions: IAM2732
# [24] = system: Mycobacterium avium IFO 3082; assay: MIC, agar dilution, nutrient agar medium; assay type: cell-based; conditions: IFO3082
# [25] = system: Corynebacterium faciens IAM 1079; assay: MIC, agar dilution, nutrient agar medium; assay type: cell-based; conditions: IAM1079
# [26] = system: Escherichia coli K-12 IAM 1264; assay: MIC, agar dilution, nutrient agar medium; assay type: cell-based; conditions: IAM1264
# [27] = system: Xanthomonas oryzae IAM 1657; assay: microbe, parasite or virus in culture; assay type: cell-based; conditions: IAM1657
# [28] = system: Microsporum gypseum IFO 5948; assay: MIC, agar dilution, nutrient agar medium; assay type: cell-based; conditions: Nannizzia gypsea, IFO5948
# [29] = system: Streptococcus pyogenes IFO 3340; assay: MIC, agar dilution, nutrient agar medium; assay type: cell-based; conditions: IFO3340
# [30] = system: Aspergillus niger IFO 6342; assay: MIC, agar dilution, nutrient agar medium; assay type: cell-based; conditions: IFO6342
# Bacteroides fragilis = assay: MIC, agar dilution, nutrient agar medium; assay type: cell-based
# [31] = system: Proteus mirabilis IFO 3849; assay: MIC, agar dilution, nutrient agar medium; assay type: cell-based; conditions: IFO3849
# [32] = system: Micrococcus luteus PCI 1001; assay: MIC, agar dilution, nutrient agar medium; assay type: cell-based; conditions: PCI1001
# [33] = system: Citrobacter freundii IFO 12681; assay: MIC, agar dilution, nutrient agar medium; assay type: cell-based; conditions: IFO12681
# [34] = system: Epidermophyton floccosum IFO 9045; assay: MIC, agar dilution, nutrient agar medium; assay type: cell-based; conditions: IFO9045
# Peptococcus aerogenes = assay: MIC, agar dilution, nutrient agar medium; assay type: cell-based; conditions: Peptoniphilus asaccharolyticus
# [35] = system: Bacillus subtilis PCI 219; assay: MIC, agar dilution, nutrient agar medium; assay type: cell-based; conditions: PCI219
# [36] = system: Pseudomonas fluorescens IFO 3903; assay: MIC, agar dilution, nutrient agar medium; assay type: cell-based; conditions: IFO3903
# [37] = system: Vibrio tyrogenes IAM 1080; assay: MIC, agar dilution, nutrient agar medium; assay type: cell-based; conditions: IAM1080
# [38] = system: Proteus morganii IFO 3168; assay: MIC, agar dilution, nutrient agar medium; assay type: cell-based; conditions: Morganella morganii, IFO3168
# [39] = system: Staphylococcus aureus 209 p; assay: MIC, agar dilution, nutrient agar medium; assay type: cell-based
compound,measurement,setting,value
"[C-]#[N+]C12CC3(/C=C/C(=O)O)OC3C1O2 (stereo not shown) [Antibiotic No. 2188, 3-(6-isocyano-3,7-dioxatricyclo[4.1.0.0^2,4]hept-4-yl)propenoic acid]",MIC,[1],1.6 µg/mL
same,MIC,Eubacterium aerofaciens,> 200 µg/mL
same,solubility,[2]; hexane and petroleum ether,insoluble
same,solubility,"[2]; methanol, ethanol, acetone, ethyl acetate, chloroform and benzene",soluble
same,MIC,[3],12.5 µg/mL
same,MIC,Pseudomonas putida T-2,6.25 µg/mL
same,acute toxicity,mouse,no acute toxicity
same,MIC,Erwinia aroidae IAM 1068,25 µg/mL
same,MIC,[4],50 µg/mL
same,MIC,[5],50 µg/mL
same,MIC,[6],> 200 µg/mL
same,MIC,[7],25 µg/mL
same,MIC,[8],12.5 µg/mL
same,MIC,[9],50 µg/mL
same,MIC,Salmonella anatum 1,12.5 µg/mL
same,MIC,[10],200 µg/mL
same,MIC,[11],100 µg/mL
same,MIC,Pseudomonas ovalis,> 100 µg/mL
same,MIC,[12],200 µg/mL
same,MIC,[13],100 µg/mL
same,MIC,[14],100 µg/mL
same,MIC,[15],> 100 µg/mL
same,MIC,[16],50 µg/mL
same,MIC,Saccharomyces cerevisiae,> 200 µg/mL
same,MIC,[17],50 µg/mL
same,antibacterial activity,[18],shows an antibacterial activity against various gram-positive and gram-negative bacteria
same,MIC,[19],50 µg/mL
same,MIC,[20],6.25 µg/mL
same,MIC,[21],6.25 µg/mL
same,MIC,[22],200 µg/mL
same,MIC,[23],> 200 µg/mL
same,MIC,[24],12.5 µg/mL
same,MIC,[25],12.5 µg/mL
same,MIC,[26],12.5 µg/mL
same,MIC,[27],50 µg/mL
same,MIC,[28],100 µg/mL
same,MIC,[29],6.25 µg/mL
same,MIC,[30],> 200 µg/mL
same,MIC,Bacteroides fragilis,50 µg/mL
same,MIC,[31],50 µg/mL
same,MIC,[32],6.25 µg/mL
same,MIC,[33],12.5 µg/mL
same,MIC,[34],50 µg/mL
same,MIC,Peptococcus aerogenes,25 µg/mL
same,MIC,[35],12.5 µg/mL
same,MIC,[36],12.5 µg/mL
same,MIC,[37],3.1 µg/mL
same,MIC,[38],12.5 µg/mL
same,MIC,[39],6.25 µg/mL
